Results on eleven compounds are retold here after ChEMBL document CHEMBL1201862, “PubChem BioAssay data set” (2004).

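Following 48 hours of exposure in 96-well plates, responses at five concentrations were used to interpolate endpoints linearly. At the GI50, growth is halved.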 Activity calls are given as the source filed them. Cut-off read from the data, not from the text of the source: active = GI50 up to about 1.1 µM and inactive = higher.

Test systems include 786-0; CCRF-CEM; EKVX; HCT-116; HL-60; HOP-92; HT-29; IGROV-1; M14; Malme-3M; OVCAR-4; SK-MEL-5; SK-OV-3; SNB-19; SNB-75; SR; T47D; U-251; UACC-62; CAKI-1.
Holding throughout (assay): NCI anticancer screen, dose series, 48 h

Turning to `O=C(CC(C(=O)O)N1CCOCC1)c1ccccc1` (stereo not given), the GI50 in the experiment with 786-0 was 15.1 µM (inactive); with CCRF-CEM, 3.37 µM (inactive); with EKVX, 18.4 µM (inactive); in the experiment with HCT-116 it was 14 µM (inactive); with HL-60, 20.6 µM (inactive); with HOP-92, 20.4 µM (inactive). For the same compound, the GI50 in the experiment on HT-29 is 17.1 µM (inactive); in the experiment with IGROV-1, 26.2 µM (inactive); in the experiment on M14 it was 14.6 µM (inactive); with Malme-3M, 18.8 µM (inactive); in the experiment on OVCAR-4, 23 µM (inactive); in the experiment with SK-MEL-5, 19.6 µM (inactive). The GI50 in the experiment on SK-OV-3 was 37 µM (inactive); with SNB-19, 21 µM (inactive); in the experiment with SNB-75, 31 µM (inactive); with SR, 16.4 µM (inactive); in the experiment with T47D, > 100 µM (inactive); in the experiment with U-251 it was 16.7 µM (inactive). The GI50 in the experiment with UACC-62 is 14.6 µM (inactive).
As to `O=C1CCCCCCCCCCC1CN1CCOCC1` (stereo not given), the GI50 in the experiment with 786-0, with CCRF-CEM, in the experiment with EKVX, with HCT-116, in the experiment with HL-60 and in the experiment with HOP-92 was > 100 µM (inactive) each time. Moreover, the GI50 with IGROV-1 was > 100 µM (inactive); in the experiment with M14 it was > 100 µM (inactive); in the experiment on Malme-3M, > 100 µM (inactive); in the experiment on OVCAR-4, > 100 µM (inactive); in the experiment with SK-MEL-5, 13.9 µM (inactive); in the experiment on SK-OV-3 it was > 100 µM (inactive). In addition, the GI50 in the experiment with SNB-19 is > 100 µM (inactive); in the experiment on SNB-75 it was 2.45 µM (inactive); in the experiment with SR, > 100 µM (inactive); in the experiment with T47D, > 100 µM (inactive); with U-251 it was > 100 µM (inactive); in the experiment on UACC-62, > 100 µM (inactive).
In the case of `Nc1nnc2n1C(=O)C(C1(C3=Nc4nnc(N)n4C3=O)Cc3ccccc3C1=O)=N2`, the GI50 in the experiment with 786-0 was > 100 µM (inactive); with CAKI-1 it was > 100 µM (inactive); in the experiment with CCRF-CEM, 48 µM (inactive); in the experiment on EKVX, > 100 µM (inactive); in the experiment on HCT-116 it was > 100 µM (inactive); in the experiment with HL-60, > 100 µM (inactive). In addition, the GI50 in the experiment on HOP-92, with HT-29, in the experiment on M14, with Malme-3M, with SK-MEL-5 and in the experiment with SK-OV-3 was > 100 µM (inactive) throughout. Moreover, the GI50 in the experiment with SNB-19 was > 100 µM (inactive); in the experiment on SNB-75 it was > 100 µM (inactive); in the experiment on SR it was 76.6 µM (inactive); in the experiment with T47D it was 64.9 µM (inactive); in the experiment with UACC-62, > 100 µM (inactive).
On to `Cn1c2c(c3ccccc31)CCN1C(=O)CN(C(=O)C3CCCCC3)CC21` (stereo not given), for which the GI50 with 786-0, in the experiment on CCRF-CEM, with EKVX, in the experiment with HCT-116, with HL-60 and with HOP-92 was > 100 µM (inactive) in each case. Also, the GI50 in the experiment on HT-29, with IGROV-1, in the experiment with M14, in the experiment with Malme-3M, in the experiment on OVCAR-4 and with SK-MEL-5 was > 100 µM (inactive) each time. Further, the GI50 with SK-OV-3, with SNB-19, in the experiment on SNB-75, in the experiment with SR, in the experiment on T47D and with U-251 was > 100 µM (inactive) in each case. For the same compound, in the experiment with UACC-62, the GI50 is > 100 µM (inactive).
For the compound `Cc1ccc(S(=O)(=O)NC(=O)NC(CC(=O)O)C(=O)O)cc1` (stereo not given), the GI50 in the experiment with 786-0, in the experiment with CCRF-CEM, in the experiment on HCT-116, in the experiment with HL-60, with HOP-92 and in the experiment on HT-29 was > 100 µM (inactive) throughout. In addition, the GI50 with IGROV-1, in the experiment with M14, with Malme-3M, with OVCAR-4, in the experiment on SK-MEL-5 and with SK-OV-3 was > 100 µM (inactive) each time. Also, the GI50 in the experiment on SNB-19, in the experiment on SNB-75, in the experiment with SR, with T47D, with U-251 and in the experiment on UACC-62 was > 100 µM (inactive) each time.
As for `CCOC(=O)[C@@]1(C(C)=O)CC(C)=C(C)C[S@@+]1[O-]`, the GI50 with 786-0 is > 100 µM (inactive); with CAKI-1, > 100 µM (inactive); in the experiment with EKVX, > 100 µM (inactive); with HCT-116, > 100 µM (inactive); in the experiment with HOP-92, 50.2 µM (inactive); in the experiment on IGROV-1, > 100 µM (inactive). Further, the GI50 in the experiment on M14, in the experiment with Malme-3M, in the experiment on OVCAR-4, with SK-OV-3, with SNB-19 and in the experiment with SNB-75 was > 100 µM (inactive) throughout. Moreover, the GI50 with SR, in the experiment with T47D, in the experiment on U-251 and in the experiment on UACC-62 was > 100 µM (inactive) each time.
In the case of `CC[C@]1(Cc2ccc(OC)c(OC)c2)C=[N+]([O-])O[C@H](OC2CCCC2(c2ccccc2)c2ccccc2)[C@@H]1OC(=O)c1ccccc1` (stereo not given in full), the GI50 is 6.75 µM (inactive) in the experiment on 786-0; > 100 µM (inactive) in the experiment on CAKI-1; 3.27 µM (inactive) in the experiment on CCRF-CEM; 3.86 µM (inactive) in the experiment with EKVX; 4.51 µM (inactive) in the experiment with HCT-116; 3.21 µM (inactive) in the experiment on HL-60. Moreover, the GI50 was 3.02 µM (inactive) in the experiment with HOP-92; 3.57 µM (inactive) with HT-29; 3.67 µM (inactive) with IGROV-1; 8.13 µM (inactive) in the experiment on M14; 7.38 µM (inactive) in the experiment on OVCAR-4; 4.37 µM (inactive) in the experiment with SK-MEL-5. Moreover, the GI50 with SK-OV-3 is > 47.9 µM (inactive); in the experiment on SNB-19, > 29.2 µM (inactive); with SNB-75 it was 6.62 µM (inactive); with SR, 3.1 µM (inactive); in the experiment on T47D, 2.73 µM (inactive); in the experiment with U-251 it was 42.1 µM (inactive). For the same compound, the GI50 with UACC-62 was 8.67 µM (inactive).
Regarding `O=C1NC(N2CCCCC2)=N/C1=C\c1ccco1`, the GI50 with 786-0 is > 100 µM (inactive); in the experiment on CAKI-1, > 100 µM (inactive); with CCRF-CEM, > 100 µM (inactive); with EKVX it was 78.2 µM (inactive); in the experiment with HCT-116, > 100 µM (inactive); in the experiment on HL-60, > 100 µM (inactive). Also, the GI50 is > 100 µM (inactive) with HOP-92; 30.3 µM (inactive) in the experiment on HT-29; 54.7 µM (inactive) in the experiment on IGROV-1; > 100 µM (inactive) in the experiment with M14; > 100 µM (inactive) with Malme-3M; > 100 µM (inactive) in the experiment on OVCAR-4. Besides, the GI50 in the experiment on SK-MEL-5, in the experiment with SK-OV-3, with SNB-19, in the experiment on SR, with T47D and with U-251 was > 100 µM (inactive) throughout. Besides, the GI50 with UACC-62 was > 100 µM (inactive).
Consider `CCN(CC)C(=S)SC(=S)N(CC)CC`, for which the GI50 in the experiment on 786-0 was 23.7 µM (inactive); in the experiment on CAKI-1, 36.1 µM (inactive); in the experiment with EKVX, 42.6 µM (inactive); in the experiment with HCT-116, 21 µM (inactive); in the experiment with HL-60, 29.5 µM (inactive); with HOP-92, 39.4 µM (inactive). The GI50 is 30.5 µM (inactive) in the experiment with IGROV-1; 44.5 µM (inactive) in the experiment on M14; 23.3 µM (inactive) in the experiment with Malme-3M; 19.9 µM (inactive) with OVCAR-4; 5.07 µM (inactive) with SK-MEL-5; > 100 µM (inactive) in the experiment with SK-OV-3. For the same compound, the GI50 in the experiment with SNB-19 was 49.8 µM (inactive); in the experiment with SNB-75 it was 31.3 µM (inactive); in the experiment with SR, 0.0482 µM (active); in the experiment on T47D it was 32.4 µM (inactive); in the experiment on U-251, 36 µM (inactive); with UACC-62 it was 20.8 µM (inactive).
Take `CCC(C#N)NC(=O)NC(C#N)CC` (stereo not given): the GI50 with 786-0, in the experiment on CAKI-1, with CCRF-CEM, in the experiment on EKVX, in the experiment on HCT-116 and in the experiment with HL-60 was > 100 µM (inactive) throughout. In addition, the GI50 in the experiment on HOP-92 was 31.7 µM (inactive); in the experiment on HT-29, > 100 µM (inactive); with IGROV-1 it was > 100 µM (inactive); in the experiment on M14 it was > 100 µM (inactive); in the experiment with Malme-3M, > 100 µM (inactive); in the experiment on OVCAR-4, 33.6 µM (inactive). Besides, the GI50 with SK-MEL-5, in the experiment with SK-OV-3, in the experiment on SNB-19, with SR, with T47D and in the experiment with U-251 was > 100 µM (inactive) in each case. Besides, in the experiment on UACC-62, the GI50 was > 100 µM (inactive).
Regarding `O=C1Cc2c([nH]c3c(Cl)cccc23)-c2ccccc2N1`, the GI50 in the experiment on 786-0 was > 100 µM (inactive); with CCRF-CEM, > 100 µM (inactive); in the experiment on HCT-116 it was > 100 µM (inactive); in the experiment on HL-60 it was > 100 µM (inactive); in the experiment with HOP-92, 95.7 µM (inactive); in the experiment with HT-29 it was > 100 µM (inactive). In addition, the GI50 with IGROV-1, with M14, in the experiment with Malme-3M, in the experiment with OVCAR-4, with SK-MEL-5 and with SK-OV-3 was > 100 µM (inactive) each time. For the same compound, the GI50 with SNB-19, in the experiment with SNB-75, with SR, in the experiment on T47D, in the experiment on U-251 and with UACC-62 was > 100 µM (inactive) in each case.
